Data set [1] can be described thus: Hygroscopicity test by dynamic vapor sorption (DVS). It is filed as physicochemical. As to conditions: for hygroscopicity characteristic: DVS, 0-80% relative humidity, China Pharmacopoeia 2020 classes; for weight change with increasing humidity (DVS): between 0-80% relative humidity. On the procedure:
The crystal form and amorphous form of the macrocyclic compound provided by the present invention were evaluated for hygroscopicity, and the test was performed using a dynamic vapor sorption to obtain data. The description of the hygroscopicity characteristic and the definition of the weight gain due to hygroscopicity (as shown in Table 2) are referred to China Pharmacopoeia (2020 edition) Part Four General Principles 9103.
The adsorption-desorption isotherm of the crystal form prepared in example 1 is shown in FIG. 5, wherein the abscissa is relative humidity and the ordinate is weight (%). […] The adsorption-desorption isotherm of the crystal form prepared in comparative example 1 is shown in FIG. 6, wherein the abscissa is relative humidity and the ordinate is weight (%).

Data set [2] is described as follows: Stability test on influence factors (high temperature, high humidity, light), purity by HPLC. In kind it is physicochemical. As to conditions: for change of purity / impurity content during the experimental period (in words): high temperature, high humidity and light, 30 days. On the procedure: The crystal form and the amorphous form of the macrocyclic compound provided by the present invention were subjected to the stability test on influence factors according to China Pharmacopoeia (2020 edition) Part Four General Principles 9103. Specifically, the crystal form of a macrocyclic compound prepared in example 1 and the amorphous form of the macrocyclic compound prepared in comparative example 1 were placed in an open space under the respective conditions of high temperature (60±2° C.), high humidity (90%±5% RH, 25±2° C.) and light (4500±500 Lx) for 30 days to test stability. The observation period was 30 days. The tested samples were taken on days 5, 10 and 30, and analyzed for purity by high performance liquid chromatography.

Data set [3] in a line: Pharmacokinetic test in beagle dogs, plasma concentration after oral gavage. In kind it is in vivo. As to conditions: dog, male beagle dogs, oral single gavage, 8 mg/kg. On the procedure:
After grouped (3 Beagle dogs per group), male beagle dogs were orally administered with the crystal form of the macrocyclic compound provided by the present invention via single gavage at a dose of 8 mg/kg. The plasma was collected at 0.25 h, 0.5 h, 1.0 h, 2.0 h, 4.0 h, 6.0 h, 8.0 h, and 24 h after the administration. A standard curve with appropriate range was established based on the concentration of the tested sample to calculate the concentration of the tested sample in plasma. The quantitative analysis was carried out and the pharmacokinetic parameters were calculated for the tested sample. The results are shown in Table 5, wherein Cmax represents the peak concentration, AUC0-last represents the area below the drug-time curve, Tmax represents peak time of the drug and T1/2 represents the half-life of the drug.

The nature of data set [4]: Accelerated stability test, crystal form checked by XRPD. In kind it is physicochemical. The note with it: 40 ± 2° C., relative humidity 75 ± 5%, seal. The protocol: The crystal form of the macrocyclic compound provided by the present invention was subjected to accelerated stability test to examine stability according to China Pharmacopoeia (2020 edition) Part Four General Principles 9103. Specifically, the crystal form was placed in a sealed space at temperature of 40±2° C. and a relative humidity of 75±5% for 6 months. The sample to be tested was taken at months 1, 2, 3 and 6, and detected using X-ray Powder Diffractometer.

The mark [5] stands for this setting: listed as comparative example 1.

In the case of `C[C@@H]1CCOc2ccc(F)cc2[C@H]2CCCN2c2ccc3ncc(C#N)c(c3n2)N1` [Comparative Example 1, (6R,16R)-9-fluoro-16-methyl-13-oxa-2,17,21,25-tetraazapentacyclo [16.6.2.0^2,6.0^7,12.0^22,26]hexacosane-1(25),7,9,11,18(26), 19,21,23-octane-19-carbonitrile], the hygroscopicity characteristic result in data set [1] (setting [5]) is “very hygroscopic (not less than 15%)”. Moreover, the “weight change with increasing humidity (DVS)” value in data set [1] (setting [5]) is given as “about 21.6%”. Further, the “Sample purity (%)” value was found to be 97.9% in data set [2] (High humidity (90%±5% RH, 25±2° C.), open, day 5, listed as comparative example 1); 98.0% in data set [2] (High humidity (90%±5% RH, 25±2° C.), open, day 10, listed as comparative example 1); 97.7% in data set [2] (High humidity (90%±5% RH, 25±2° C.), open, day 30, listed as comparative example 1); 97.6% in data set [2] (High temperature (60±2° C.), open, day 5, listed as comparative example 1); 97.1% in data set [2] (High temperature (60±2° C.), open, day 10, listed as comparative example 1); 96.9% in data set [2] (High temperature (60±2° C.), open, day 30, listed as comparative example 1). For the same molecule, the “Sample purity (%)” value came out at 97.4% in data set [2] (Light (4500±500 Lx), open, day 5, listed as comparative example 1); 96.8% in data set [2] (Light (4500±500 Lx), open, day 10, listed as comparative example 1); 96.4% in data set [2] (Light (4500±500 Lx), open, day 30, listed as comparative example 1); 98.1% in data set [2] (day 0, listed as comparative example 1). In addition, the “change of purity / impurity content during the experimental period (in words)” value in data set [2] (setting [5]) is given as “decrease in purity”.
For `C[C@@H]1CCOc2ccc(F)cc2[C@H]2CCCN2c2ccc3ncc(C#N)c(c3n2)N1` [Example 1, (6R,16R)-9-fluoro-16-methyl-13-oxa-2,17,21,25-tetraazapentacyclo [16.6.2.0^2,6.0^7,12.0^22,26]hexacosane-1(25),7,9,11,18(26), 19,21,23-octane-19-carbonitrile], the exposure AUC(0-t) in data set [3] came to 5340 ± 1070 ng·h/mL. The Tmax in data set [3] stood at 1.3 ± 0.58 h. Also, the half-life in data set [3] was 1140 ± 234 min. The Cmax in data set [3] (read-out: C0/Cmax) is 729 ± 208 ng/mL. Further, the hygroscopicity characteristic result in data set [1] (listed as example 1) was “not hygroscopic”. Moreover, the “weight change with increasing humidity (DVS)” value in data set [1] (listed as example 1) is reported as “approximately 0.1%”. The “crystal form by XRPD” value in data set [4] (month 1), in data set [4] (month 2), in data set [4] (month 3) and in data set [4] (month 6) was “Same as initial crystal form” in each case. Besides, the “Sample purity (%)” value in data set [2] (High humidity (90%±5% RH, 25±2° C.), open, day 5, listed as example 1) is given as 98.8%; in data set [2] (High humidity (90%±5% RH, 25±2° C.), open, day 10, listed as example 1) it was 98.8%; in data set [2] (High humidity (90%±5% RH, 25±2° C.), open, day 30, listed as example 1) it was 98.8%; in data set [2] (High temperature (60±2° C.), open, day 5, listed as example 1), 99.0%; in data set [2] (High temperature (60±2° C.), open, day 10, listed as example 1), 98.9%; in data set [2] (High temperature (60±2° C.), open, day 30, listed as example 1) it was 98.9%. Further, the “Sample purity (%)” value in data set [2] (Light (4500±500 Lx), open, day 5, listed as example 1) is recorded as 98.9%; in data set [2] (Light (4500±500 Lx), open, day 10, listed as example 1) it was 98.8%; in data set [2] (Light (4500±500 Lx), open, day 30, listed as example 1), 98.6%; in data set [2] (day 0, listed as example 1), 98.8%. Also, the “change of purity / impurity content during the experimental period (in words)” value in data set [2] (listed as example 1) is listed as “increased slightly under the light condition only”.
